What is called AC50 is the midpoint of the concentration-response curve, whichever way the signal moves.

Our source for the activity change, negative = cytotoxicity and AC50 values is PubChem BioAssay AID720713 (Broad Institute, 2013).

A short description of experiment [1]: A549 cell cytotoxicity, dose response, plate reader, dry powder, set 2 (AID 720713). The following applies: A549 cytotoxicity, plate reader.
Experiment [2] deals with A549 cytotoxicity, plate reader. Described as above.

The structures appear in SMILES notation. The source made the active and inactive calls. How the calls were made is not given here.

As for `CC(=O)Nc1cccc(NC(=O)CSc2ncc(-c3ccc(Cl)cc3)n2Cc2ccco2)c1`, the activity change, negative = cytotoxicity in experiment [1] (at 26 µM (top of the series)) is 11.6% (inactive).
Regarding `CN(C(=O)COc1ccccc1C(=O)NCCOc1ccccc1)c1ccccc1`, the activity change, negative = cytotoxicity in experiment [1] (at 12 µM (top of the series)) is 2.59% (inactive).
Consider `COc1ccc(Nc2nc(N3CCCCC3)c3ccccc3n2)cc1`, for which, in experiment [1] (at 26 µM (top of the series)), the activity change, negative = cytotoxicity was 5.38% (inactive).
Same read-out and setting: under `CC(C)(C)NC(=O)CSc1nc2ccc(NC(=O)CSc3nnnn3Cc3ccccc3)cc2s1` stands 16.7% (inactive); under `Cc1ccc2cc(CN(CC3CCCO3)C(=O)NC3CCCCC3)c(=O)[nH]c2c1C` (configuration not stated), 106% (inactive).
Same read-out and setting: the same measure for `Cc1cc(N2CCCC2=O)cc(C)c1S(=O)(=O)NCCOc1ccc(C(C)(C)C)cc1`: 11% (inactive); for `Cc1cc2c(cc(C(=O)N3CCC(C(=O)NC4CCCC4)CC3)n2Cc2c(F)cccc2Cl)o1`: -19.5% (inactive); for `Nc1nonc1C(=O)NCCNCc1cc(Br)ccc1OCc1ccc(F)cc1`: 4.85% (inactive).
Still for that read-out and setting: under `CCOC(=O)C1(Cc2ccc(Cl)cc2)CCN(C(C)Cc2ccc(O)c(OC)c2)CC1` (configuration not stated) stands 1.75% (inactive).
On to `Fc1ccc(-n2nnnc2-c2cnc(-c3cccs3)nc2C(F)(F)F)cc1`, for which the activity change, negative = cytotoxicity in experiment [1] (at 26 µM (top of the series)) is 2.19% (inactive).
Regarding `COc1ccccc1N1CCN(c2ncc(C(=O)N3CCN(c4cccc(Cl)c4)CC3)c3ccccc23)CC1`, the activity change, negative = cytotoxicity in experiment [1] (at 26 µM (top of the series)) was 4.47% (inactive).
Same read-out and setting: under `COc1ccc(NS(=O)(=O)c2ccc(C(=O)N3CCCCCC3)cc2)cc1` stands 22% (inactive).
Same read-out and setting: the same measure for `CC(C)[C@H](NC(=O)OC(C)(C)C)c1nnc(S(=O)(=O)Cc2c(F)cccc2Cl)o1`: 22.5% (inactive); for `CCOC(=O)C1CCN(C(=O)c2ccc(OCC(=O)Nc3cccc(C(F)(F)F)c3)c(OC)c2)CC1`: -17.5% (inactive).
Regarding `COc1ccc(NC(=O)c2nc(S(=O)(=O)Cc3cccc(C)c3)ncc2Cl)c(OC)c1`, in experiment [2], the AC50 is > 52 µM (inactive).
On to `CN(CC(=O)Nc1cccc(S(=O)(=O)N2CCOCC2)c1)CC(=O)Nc1ccc(Cl)c(C(F)(F)F)c1`, for which the activity change, negative = cytotoxicity in experiment [1] (at 26 µM (top of the series)) is 8.78% (inactive).
The same measure, in the same setting: the same measure for `O=C1CSc2ccc(C(=O)Nc3cccc(S(=O)(=O)Nc4ccc(Br)cc4)c3)cc2N1`: 12% (inactive); for `COc1ccc2c(c1)c(CC(=O)Nc1cc(C)ccc1C)c(C)n2C(=O)c1ccc(Cl)cc1`: -1.36% (inactive).
The same measure, in the same setting: the same measure for `COc1cc(CN2CCc3ccccc3C2)ccc1O`: -37.2% (inactive); for `O=c1c2ccccc2nc2n1C(CSCc1ccc(Cl)cc1Cl)CS2` (configuration not stated): 6.09% (inactive); for `CC(=O)N1CCN(C(=O)CCc2cc(C(C)(C)C)c(O)c(C(C)(C)C)c2)CC1`: -4.62% (inactive).
On the same count and under the same terms, under `COc1cc2ncnc(N[C@H](C)c3ccccc3)c2cc1OC` stands 10.2% (inactive); under `CCOC(=O)c1ccc(NC(=O)Cn2ncc(Cl)c(Cl)c2=O)cc1`, -6.56% (inactive).
With `O=C(c1nnsc1S(=O)c1ccc(Cl)cc1)N1CCOCC1` (configuration not stated), the activity change, negative = cytotoxicity in experiment [1] (at 26 µM (top of the series)) was -41.1% (inactive).
Still for that read-out and setting: the same measure for `CN(C)S(=O)(=O)c1cccc(NC(=O)c2cccc(S(=O)(=O)N3CCc4ccccc43)c2)c1`: -0.758% (inactive); for `CCCc1nnc(NC(=O)c2nc(S(=O)(=O)Cc3ccc(C)cc3)ncc2Cl)s1`: 8.63% (inactive).
Turning to `CN(C)c1nc(-c2ccccn2)nnc1-c1ccccc1`, in experiment [2], the AC50 was 25.6 µM.
